Experimental data as given in ChEMBL document CHEMBL1201862, “PubChem BioAssay data set” (2004).
Activity calls are given as the source filed them.

Legend:
[1] = C. albicans growth with fluconazole, confirmation, fluorescence, retest (AID 2467); type: functional, cell-based
INS1 = test: beta cell apoptosis inhibitors, cytokine rescue, dose response, luminescence, retest (AID 449756); type: functional, cell-based; conditions: Rattus norvegicus;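 note: cell death triggered by IL-1 beta plus TNF-alpha plus IFN-gamma mixture; protective hits raise ATP signal compared with cytokine alone wells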
[2] = NIH-3T3 fibroblast cytotoxicity, dose response, cytotoxicity control, cell-based, fluorescence, Alamar Blue, secondary assay (AID 2327); type: functional;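 note: NIH-3T3 mouse fibroblasts cultured with fluconazole at 8 µg/mL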
cells = type: functional
[3] = HEp-2 cell cytotoxicity, dose response, cytotoxicity control for RSV inhibitor project, HTS (AID 2410); type: functional; conditions: human respiratory syncytial virus
[4] = target: T1, Carboxy-terminal domain RNA polymerase II polypeptide A small phosphatase 1 (Homo sapiens, UniProt Q9GZU7); test: inhibitors of CTDSP1, concentration-response testing, biochemical assay, absorbance-based, actives from ultra-high-throughput screening (AID 540297); type: functional
T1 sequence (Q9GZU7 whole entry): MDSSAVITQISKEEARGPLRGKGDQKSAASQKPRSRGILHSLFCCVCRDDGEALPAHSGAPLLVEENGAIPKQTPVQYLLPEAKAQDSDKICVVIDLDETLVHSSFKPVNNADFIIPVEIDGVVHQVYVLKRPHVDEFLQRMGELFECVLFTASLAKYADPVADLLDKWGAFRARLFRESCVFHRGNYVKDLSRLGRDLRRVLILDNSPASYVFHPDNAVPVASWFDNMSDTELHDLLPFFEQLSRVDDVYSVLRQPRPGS

Cytochrome P450 3A4 = Cytochrome P450 3A4 (Homo sapiens, UniProt P08684);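 note: CYP3A4 tested as one member of a cytochrome P450 panel screen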
Sequence of Cytochrome P450 3A4 (P08684 whole entry): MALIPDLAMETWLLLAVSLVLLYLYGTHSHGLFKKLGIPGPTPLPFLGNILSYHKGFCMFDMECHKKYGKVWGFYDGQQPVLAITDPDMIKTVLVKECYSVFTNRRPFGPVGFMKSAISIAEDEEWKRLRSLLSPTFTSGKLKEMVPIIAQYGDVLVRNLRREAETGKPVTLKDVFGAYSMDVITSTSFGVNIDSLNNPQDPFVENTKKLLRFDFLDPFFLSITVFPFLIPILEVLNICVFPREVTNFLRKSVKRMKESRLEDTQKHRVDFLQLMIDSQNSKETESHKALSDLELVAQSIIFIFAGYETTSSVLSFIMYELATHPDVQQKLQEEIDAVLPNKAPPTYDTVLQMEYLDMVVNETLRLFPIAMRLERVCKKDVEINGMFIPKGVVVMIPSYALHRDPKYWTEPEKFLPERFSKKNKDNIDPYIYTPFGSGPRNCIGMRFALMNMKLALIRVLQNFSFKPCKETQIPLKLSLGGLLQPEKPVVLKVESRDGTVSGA

Cytochrome P450 2D6 = Cytochrome P450 2D6 (Homo sapiens, UniProt P10635);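 note: CYP2D6 member of a cytochrome P450 panel assay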
Sequence of Cytochrome P450 2D6 (P10635 whole entry): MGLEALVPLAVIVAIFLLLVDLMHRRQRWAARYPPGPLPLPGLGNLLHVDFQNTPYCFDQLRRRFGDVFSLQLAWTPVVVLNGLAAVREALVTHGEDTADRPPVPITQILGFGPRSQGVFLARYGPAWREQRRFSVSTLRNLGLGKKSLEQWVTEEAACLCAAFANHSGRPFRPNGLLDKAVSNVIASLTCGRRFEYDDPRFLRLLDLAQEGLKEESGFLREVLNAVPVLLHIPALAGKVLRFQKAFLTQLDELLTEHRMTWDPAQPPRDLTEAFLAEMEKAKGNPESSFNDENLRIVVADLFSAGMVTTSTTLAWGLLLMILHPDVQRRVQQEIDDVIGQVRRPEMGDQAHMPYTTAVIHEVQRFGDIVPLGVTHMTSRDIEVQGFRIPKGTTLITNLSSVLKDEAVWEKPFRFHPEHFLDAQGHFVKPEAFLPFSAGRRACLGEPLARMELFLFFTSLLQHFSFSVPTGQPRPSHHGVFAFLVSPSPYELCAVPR

Cytochrome P450 2C19 = Cytochrome P450 2C19 (Homo sapiens, UniProt P33261); test: Cytochrome panel assay with activity outcomes. Panel member name: p450-cyp2c19 Compounds with AC50 equal or less than 10 uM are considered active; type: functional; conditions: read-out: AC50
Sequence of Cytochrome P450 2C19 (P33261 whole entry): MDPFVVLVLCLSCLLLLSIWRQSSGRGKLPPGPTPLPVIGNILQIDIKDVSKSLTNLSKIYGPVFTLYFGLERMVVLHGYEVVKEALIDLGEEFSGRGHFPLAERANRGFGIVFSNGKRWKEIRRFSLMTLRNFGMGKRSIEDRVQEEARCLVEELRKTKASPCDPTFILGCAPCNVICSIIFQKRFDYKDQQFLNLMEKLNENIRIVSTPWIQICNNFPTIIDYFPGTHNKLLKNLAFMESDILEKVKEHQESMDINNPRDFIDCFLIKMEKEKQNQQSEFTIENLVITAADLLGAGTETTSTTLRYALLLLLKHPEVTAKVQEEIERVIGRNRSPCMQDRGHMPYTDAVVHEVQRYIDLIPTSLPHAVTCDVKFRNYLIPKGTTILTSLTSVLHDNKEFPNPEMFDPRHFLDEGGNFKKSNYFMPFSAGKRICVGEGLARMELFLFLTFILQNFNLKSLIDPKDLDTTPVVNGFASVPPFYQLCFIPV

[5] = cytotoxicity toward NIH3T3 fibroblasts, dose response, counter-screen, cell-based, ATP luminescence, mouse fibroblasts (AID 2010); type: functional;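 note: cells exposed to compound for about 90 hours before reading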
[6] = inhibitors of intracellular T. cruzi replication, confirmation, NIH3T3 host cells, beta-gal luminescence (AID 2044); type: functional, cell-based;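 note: intracellular parasites grown in NIH/3T3 mouse fibroblasts as host cells; luminescent beta-galactosidase reporter signal from transgenic T. cruzi replicating inside host cells; inhibitors lower the luminescence signal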
[7] = tested on: Streptococcus sp. 'group A'; test: growth inhibition of control SK(-) GAS strain, dose response, counter-screen for streptokinase expression inhibitor project, luminescence, kanamycin, BacTiterGlo, confirmation (AID 1900); type: functional, organism-based
Streptokinase A = target: T2, Streptokinase A (Streptococcus pyogenes serotype M1, UniProt P10520); test: S. pyogenes streptokinase expression inhibitors, potency, dose response, plasminogen activation absorbance, OD405 (AID 1914); type: functional, Streptococcus pyogenes M1 GAS;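 note: secreted streptokinase activity via plasminogen activation per viability signal from cell pellet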
T2 sequence (P10520 whole entry): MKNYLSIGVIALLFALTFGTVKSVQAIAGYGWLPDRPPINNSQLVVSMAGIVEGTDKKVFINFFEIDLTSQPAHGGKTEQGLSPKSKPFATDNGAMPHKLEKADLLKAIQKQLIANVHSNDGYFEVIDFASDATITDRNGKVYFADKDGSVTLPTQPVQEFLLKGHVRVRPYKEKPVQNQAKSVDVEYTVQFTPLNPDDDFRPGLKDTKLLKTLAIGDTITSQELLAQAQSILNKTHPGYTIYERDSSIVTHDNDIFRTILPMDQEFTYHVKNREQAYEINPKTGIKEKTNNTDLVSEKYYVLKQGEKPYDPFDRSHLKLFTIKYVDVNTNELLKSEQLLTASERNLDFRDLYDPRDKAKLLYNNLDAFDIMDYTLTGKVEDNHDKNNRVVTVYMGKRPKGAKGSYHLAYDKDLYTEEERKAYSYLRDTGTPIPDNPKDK

Streptococcus = test: Group A Streptococcus viability loss, dose response, counter-screen for streptokinase expression inhibitor project, luminescence, BacTiterGlo (AID 1915); type: functional, organism-based;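 note: potency for reduction of bacterial viability or growth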
[8] = target: T3, Corticotropin-releasing factor receptor 2/Corticotropin-releasing factor-binding protein (Homo sapiens, UniProt P24387+Q13324); test: activators of CRF receptor 2 with binding protein – uHTS hits, confirmation (AID 602473); type: functional; conditions: read-out: EC50_Mean
T3 sequence (Q13324 whole entry): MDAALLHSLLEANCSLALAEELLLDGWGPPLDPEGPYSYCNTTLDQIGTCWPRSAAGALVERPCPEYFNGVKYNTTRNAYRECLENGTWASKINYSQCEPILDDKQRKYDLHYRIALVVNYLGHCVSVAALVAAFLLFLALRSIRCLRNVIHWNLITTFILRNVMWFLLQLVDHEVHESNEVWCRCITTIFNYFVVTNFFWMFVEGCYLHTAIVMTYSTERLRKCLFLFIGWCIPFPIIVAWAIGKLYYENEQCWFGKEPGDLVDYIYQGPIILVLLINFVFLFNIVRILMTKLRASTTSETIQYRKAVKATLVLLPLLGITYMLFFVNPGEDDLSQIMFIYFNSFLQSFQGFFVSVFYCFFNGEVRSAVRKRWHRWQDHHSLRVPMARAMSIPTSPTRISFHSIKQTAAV
T3 sequence (P24387 whole entry): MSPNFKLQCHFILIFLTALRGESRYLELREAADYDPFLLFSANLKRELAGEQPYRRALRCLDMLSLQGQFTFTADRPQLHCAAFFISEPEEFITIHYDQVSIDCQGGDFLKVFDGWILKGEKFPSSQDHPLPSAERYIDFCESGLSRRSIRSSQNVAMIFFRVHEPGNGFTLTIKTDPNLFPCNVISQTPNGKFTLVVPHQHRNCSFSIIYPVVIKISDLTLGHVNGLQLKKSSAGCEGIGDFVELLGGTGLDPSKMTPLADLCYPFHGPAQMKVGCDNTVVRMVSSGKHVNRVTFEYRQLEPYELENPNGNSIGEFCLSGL

[9] = target: T3, Corticotropin-releasing factor receptor 2/Corticotropin-releasing factor-binding protein; test: Dose Response confirmation of uHTS hits for small molecule antagonists of the CRF-binding protein and CRF-R2 receptor complex.; type: functional; conditions: read-out: IC50_Mean

With `CCn1c(N=NO)nc2ccccc21` the EC50 [1] was > 38 µM (not active), the AC50 (INS1) was 1.83 µM (active) and the EC50 [2] was 21.9 µM (active).
With `O=C(COC(=O)c1ccc(Br)o1)NCCCc1ccccc1` the IC50 (cells) was 38.5 µM (active).
In the case of `CC1(c2ccccc2)CC(C)(C)N(C(=O)CSc2nnc(N)s2)c2ccccc21` (configuration not stated), the CC50 [3] is reported as 22.9 µM (active).
For `CCOc1ccc2nc(O)c(O)nc2c1`, the CC50 [3] was 45.8 µM (active).
For `Cc1sc2ncnc(SCC(=O)Nc3ncccc3O)c2c1C`, the IC50 [4] was 5.35 µM (active).
For `O=C(OCC(=O)N1CCCC1)c1cc(Br)ccc1Cl`, the IC50 (cells) was 22 µM (active).
For `CCC1CCc2sc(C(=O)NNC(=O)c3ccncc3)cc2C1` (configuration not stated), the IC50 (cells) was 21.6 µM (active).
With `COc1ccccc1-c1ccc2ncnc(NCc3cnc(C)cn3)c2c1` the AC50 (Cytochrome P450 3A4) was 10 µM (inconclusive), the AC50 (Cytochrome P450 2D6) was 39.8 µM (inconclusive) and the AC50 (Cytochrome P450 2C19) was 39.8 µM (inconclusive).
In the case of `CC(C)(C)C1CCC(OC(=O)C[N+]2(C)CCCCC2)CC1` (configuration not stated), the EC50 [1] is reported as > 38 µM (not active) and the EC50 [2] is reported as 18.1 µM (active).
In the case of `COc1ccc(CN(C(=O)CSc2nnc(-c3ccccc3F)o2)c2ccc(F)cc2)cc1`, the CC50 [3] is reported as 23.1 µM (active).
With `CCN(CC)c1cccc(OC2=NS(=O)(=O)c3ccccc32)c1` the EC50 [1] was 5.06 µM (active) and the EC50 [2] was > 150 µM (inactive).
In the case of `CS(=O)(=O)N(CC(=O)Nc1c(F)cccc1F)c1ccc(C23CC4CC(CC(C4)C2)C3)cc1`, the AC50 (Cytochrome P450 3A4) is reported as 15.8 µM (inconclusive), the EC50 [5] is reported as 10.6 µM (active) and the AC50 (Cytochrome P450 2D6) is reported as 4.47 µM (inconclusive). The EC50 [6] was 2.25 µM (active).
In the case of `O=C(NCc1cccnc1)c1ccc(-c2cccc(Cl)c2Cl)o1`, the EC50 [1] is reported as > 38 µM (not active), the EC50 [5] is reported as > 60 µM (not active) and the EC50 [2] is reported as > 38 µM (inactive). The EC50 [6] was 0.92 µM (active).
With `COc1ccccc1N1CCN(Cc2nc(N)nc(Nc3ccc(C)c(Cl)c3)n2)CC1` the EC50 [7] was 10.7 µM (active), the EC50 (Streptokinase A) was > 150 µM (inconclusive) and the EC50 (Streptococcus) was 20.4 µM (active). The CC50 [3] was 19.6 µM (active).
In the case of `Cc1cccc(NC(=O)CN2C(=O)S/C(=C\c3ccc(-c4cccc(C(=O)O)c4C)o3)C2=O)c1`, the IC50 [4] is reported as 3.95 µM (active).
For `CCCCC(=O)OCc1cn(-c2ccc(Cl)cc2)nn1`, the AC50 (Cytochrome P450 3A4) was 39.8 µM (inconclusive), the AC50 (Cytochrome P450 2D6) was 25.1 µM (inconclusive) and the AC50 (Cytochrome P450 2C19) was 2.24 µM (inconclusive).
With `Cc1cc(Cl)ccc1NNC(=O)c1snnc1C` the EC50 [1] was 1.59 µM (active) and the EC50 [2] was 16.8 µM (inconclusive).
For `N=c1ccn(Cc2ccc(Cl)cc2Cl)cc1`, the AC50 (INS1) was 7.25 µM (active).
With `Cc1ccc(S(=O)(=O)NNC(=O)c2ccc(NC(=O)C3CC3)cc2)cc1` the EC50 [1] was 12.7 µM (active) and the EC50 [2] was > 150 µM (inactive).
For `CSc1nc2ccc(NC(=O)C3CC(=O)N(Cc4ccccc4)C3)cc2s1` (configuration not stated), the IC50 (cells) was 11.4 µM (active).
In the case of `Cc1ccc(-c2c(NCCc3ccccc3)c(=O)c2=O)cc1`, the IC50 [4] is reported as 9.66 µM (active).
For `O=C(CCS(=O)(=O)c1ccc(Br)cc1)NCCc1ccccc1`, the IC50 [4] was 26.3 µM (active).
With `COc1ccc(OC)c(C(c2nnnn2C2CCCC2)N2CCc3ccccc3C2)c1` (configuration not stated) the CC50 [3] was 24 µM (active).
With `NC(=O)C1=C[C@@H](c2csc3ccccc23)C[C@@H](OCc2ccc(CO)cc2)O1` the CC50 [3] was 15.5 µM (active).
With `Cc1cccc(N2C(N)=NC(N)=NC23CCCCC3)c1` the EC50 [8] was > 53 µM (inactive) and the IC50 [9] was > 47.1 µM (inactive).
With `Cc1ccc(/C=C/c2onc(C)c2S(=O)(=O)N2CCC(C(=O)N3CCCCC3)CC2)cc1` the CC50 [3] was > 50 µM (active).
In the case of `O=C(CN1CCN(S(=O)(=O)c2ccccc2)CC1)Nc1ccc2c(c1)CCC2`, the EC50 [1] is reported as > 38 µM (not active) and the EC50 [2] is reported as > 150 µM (inactive).
With `CCOc1cc(S(=O)(=O)NCc2ccccc2)c(OCC)cc1-n1cnnn1` the EC50 [1] was 3.34 µM (active) and the EC50 [2] was > 150 µM (inconclusive).
With `Cc1cc(C)cc(NC(=O)Cn2nnc(C(=O)NCc3ccc(F)cc3)c2N)c1` the EC50 [8] was > 53 µM (inactive) and the IC50 [9] was > 47.1 µM (inactive).
For `Cc1oncc1-c1csc(-c2ccccc2)n1`, the CC50 [3] was 36.5 µM (active).
For `CCCNC(=O)C1CC(=O)N(c2ccc(OCC)cc2)C1` (configuration not stated), the EC50 [8] was > 53 µM (inactive) and the IC50 [9] was > 47.1 µM (inactive).
In the case of `CCO[C@@H]1OC(C(N)=O)=C[C@H](C(C)(C)C)[C@H]1CCCO`, the EC50 [8] is reported as > 53 µM (inactive) and the IC50 [9] is reported as > 47.1 µM (inactive).
For `COc1cc(C(=O)O)c2ccccc2n1`, the EC50 [8] was > 53 µM (inactive) and the IC50 [9] was < 0.368 µM (active).
For `CC[C@]12c3[nH]c4ccc(OC)cc4c3CCN1C(=O)C(CC(=O)NCCCOC)C[C@@H]2C(=O)N1CCN(C(=O)c2ccco2)CC1` (some centres not stated), the EC50 [8] was > 53 µM (inactive) and the IC50 [9] was > 47.1 µM (inactive).
With `O=C(N/N=C/C=C/c1ccco1)c1ccncc1` the IC50 (cells) was 1.31 µM (active).
